How the values were obtained:
Experiment in all cases: relative viability (nuclei count vs DMSO), 5 days (fraction); higher = more cells survive
Palbociclib + Alpelisib = compound: CC(=O)c1c(C)c2cnc(Nc3ccc(N4CCNCC4)cn3)nc2n(C2CCCC2)c1=O [Palbociclib] + Cc1nc(NC(=O)N2CCC[C@H]2C(N)=O)sc1-c1ccnc(C(C)(C)C(F)(F)F)c1 [Alpelisib] (partner 2 µM)
Summary of the method: (§1)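 One day after seeding in 1536-well plates, lung cancer cell lines were dosed by pin tool. Dosing was either single-drug or a fixed anchor-drug dose plus five library-drug doses (not always all listed) in √10 steps. After 5 days, nuclei were stained in one fix-and-stain step and counted on 4× images, and relative viability is the nuclei count of treated wells over that of vehicle wells, given as the median of duplicate plates.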

Palbociclib + Crizotinib = compound: CC(=O)c1c(C)c2cnc(Nc3ccc(N4CCNCC4)cn3)nc2n(C2CCCC2)c1=O [Palbociclib] + C[C@@H](Oc1cc(-c2cnn(C3CCNCC3)c2)cnc1N)c1c(Cl)ccc(F)c1Cl [Crizotinib] (partner 1 µM)
Summary of the method: as §1

Palbociclib + Dasatinib = compound: CC(=O)c1c(C)c2cnc(Nc3ccc(N4CCNCC4)cn3)nc2n(C2CCCC2)c1=O [Palbociclib] + Cc1nc(Nc2ncc(C(=O)Nc3c(C)cccc3Cl)s2)cc(N2CCN(CCO)CC2)n1 [Dasatinib] (partner 0.075 µM)
Summary of the method: as §1

Palbociclib + Pictilisib = compound: CC(=O)c1c(C)c2cnc(Nc3ccc(N4CCNCC4)cn3)nc2n(C2CCCC2)c1=O [Palbociclib] + CS(=O)(=O)N1CCN(Cc2cc3nc(-c4cccc5[nH]ncc45)nc(N4CCOCC4)c3s2)CC1 [Pictilisib] (partner 1 µM)
Summary of the method: as §1

Cell Line	relative viability (Palbociclib + Alpelisib; first compound 0.01 µM)	relative viability (Palbociclib + Alpelisib; first compound 0.1 µM)	relative viability (Palbociclib + Alpelisib; first compound 0.3162 µM)	relative viability (Palbociclib + Alpelisib; first compound 1 µM)	relative viability (Palbociclib + Crizotinib; first compound 0.01 µM)	relative viability (Palbociclib + Crizotinib; first compound 0.1 µM)	relative viability (Palbociclib + Crizotinib; first compound 0.3162 µM)	relative viability (Palbociclib + Crizotinib; first compound 1 µM)	relative viability (Palbociclib + Dasatinib; first compound 0.01 µM)	relative viability (Palbociclib + Dasatinib; first compound 0.1 µM)	relative viability (Palbociclib + Dasatinib; first compound 0.3162 µM)	relative viability (Palbociclib + Dasatinib; first compound 1 µM)	relative viability (Palbociclib + Pictilisib; first compound 0.01 µM)	relative viability (Palbociclib + Pictilisib; first compound 0.1 µM)	relative viability (Palbociclib + Pictilisib; first compound 0.3162 µM)	relative viability (Palbociclib + Pictilisib; first compound 1 µM)	relative viability (Palbociclib + Alpelisib; first compound 0.03162 µM)	relative viability (Palbociclib + Crizotinib; first compound 0.03162 µM)	relative viability (Palbociclib + Dasatinib; first compound 0.03162 µM)	relative viability (Palbociclib + Pictilisib; first compound 0.03162 µM)
HCC-15	0.878	0.793	0.719	0.704	0.811	0.725	0.687	0.63	0.622	0.516	0.598	0.439	0.71	0.617	0.591	0.603				
NCI-H1975	0.634	0.543	0.469	0.353	0.979	0.869	0.763	0.758	0.373	0.323	0.322	0.297	0.286	0.199	0.25	0.186	0.549	0.861	0.347	0.271
NCI-H2126	0.793	0.679	0.591	0.414	1.04	0.928	0.789	0.598	0.574	0.355	0.387	0.27	0.502	0.444	0.402	0.328	0.748	1.04	0.449	0.475
NCI-H661	0.92	0.583	0.382	0.508	0.957	0.674	0.694	0.556	0.901	0.476	0.533	0.435	0.407	0.379	0.3	0.251	0.686	0.779	0.793	0.409
LXF-289	0.99	1.01	0.923	0.767	0.747	0.782	0.684	0.612	0.208	0.164	0.148	0.174	0.752	0.642	0.69	0.474	0.988	0.811	0.0993	0.807
NCI-H358	0.777	0.395	0.312	0.257	0.453	0.335	0.332	0.187	0.156	0.101	0.0972	0.0795	0.277	0.185	0.213	0.155	0.709	0.479	0.179	0.189
NCI-H1651	1.03	0.875	0.883	0.624	0.895	0.869	0.808	0.79	0.394	0.352	0.385	0.308	0.573	0.499	0.529	0.355	0.823	0.864	0.366	0.524
NCI-H1993	0.679	0.597	0.614	0.631	0.806	0.718	0.617	0.625	0.68	0.509	0.415	0.439	0.858	0.829	0.812	0.632	0.635	0.757	0.542	0.628

— the supplement of paper PMC10307832
